From patent US20220323406A1, “METHODS AND COMPOSITIONS FOR DIFFERENTIATING STEM CELLS” (Massachusetts Institute of Technology, priority 2019, published 2022)

Experiments:
[1] = system: ENR+CD organoids (ISC to Paneth cell differentiation); assay: Primary screen: CCh-stimulated lysozyme secretion LYZ.S, 2.5-D 384-well ENR+CD organoid differentiation; format: cell-based, mouse; settings: primary screen
Source text: (§1) High-throughput screening.

[2] = system: ENR+CD organoids (ISC to Paneth cell differentiation); assay: Primary screen: basal (non-stimulated) lysozyme secretion LYZ.NS, 2.5-D 384-well ENR+CD organoid differentiation; format: cell-based, mouse
Source text: as §1

[3] = system: ENR+CD organoids; assay: Primary screen: ATP (CellTiter-Glo 3D, CTG) cell number/viability, 2.5-D 384-well ENR+CD organoids;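 also: compounds given at plating and again on day 3 over a 6-day differentiation from ENR+CV stem-cell-enriched precursors, ATP measured on day 6, plate median as control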
[4] = primary screen, dose 0.08 uM, standard z score
[5] = primary screen, dose 0.40 uM, standard z score
[6] = primary screen, dose 2.00 uM, standard z score
[7] = primary screen, dose 10.00 uM, standard z score
[8] = primary screen; dose 0.08 uM; FC vs plate median
[9] = primary screen; dose 0.40 uM; FC vs plate median
[10] = primary screen; dose 2.00 uM; FC vs plate median
[11] = primary screen; dose 10.00 uM; FC vs plate median
[12] = primary screen, dose 0.08 uM, FC relative to plate median
[13] = primary screen, dose 0.40 uM, FC relative to plate median
[14] = primary screen, dose 2.00 uM, FC relative to plate median
[15] = primary screen, dose 10.00 uM, FC relative to plate median
[16] = primary screen, standard z score, dose 0.08 uM
[17] = primary screen, standard z score, dose 0.40 uM
[18] = primary screen, standard z score, dose 2.00 uM
[19] = primary screen, standard z score, dose 10.00 uM

Structure (SMILES) | Z.LYZ.NS [2, 4] | Z.LYZ.NS [2, 5] | Z.LYZ.NS [2, 6] | Z.LYZ.NS [2, 7] | Z.CTG [3, 4] | Z.CTG [3, 5] | Z.CTG [3, 6] | Z.CTG [3, 7] | Dose.FC.LYZ.S ([1]; dose 0.08 uM) | Dose.FC.LYZ.S ([1]; dose 0.40 uM) | Dose.FC.LYZ.S ([1]; dose 2.00 uM) | Dose.FC.LYZ.S ([1]; dose 10.00 uM) | Dose.FC.LYZ.NS ([2]; primary screen, dose 0.08 uM) | Dose.FC.LYZ.NS ([2]; primary screen, dose 0.40 uM) | Dose.FC.LYZ.NS ([2]; primary screen, dose 2.00 uM) | Dose.FC.LYZ.NS ([2]; primary screen, dose 10.00 uM) | Dose.FC.CTG ([3]; primary screen, dose 0.08 uM) | Dose.FC.CTG ([3]; primary screen, dose 0.40 uM) | Dose.FC.CTG ([3]; primary screen, dose 2.00 uM) | Dose.FC.CTG ([3]; primary screen, dose 10.00 uM) | other results
S=C=Nc1cccc(NC(=S)NCCCCNC(=S)Nc2cccc(N=C=S)c2)c1 [MRS 2578] | 1.011 | 0.311 | 0.270 | 0.276 | −0.339 | 0.146 | −0.381 | −0.544 | – | – | – | – | – | – | – | – | – | – | – | – | Dose.FC.LYZ.S ([1]; dose 0.08 uM, FC vs plate median): 0.095 log2 fold change; Dose.FC.LYZ.S ([1]; dose 0.40 uM, FC vs plate median): 0.067 log2 fold change; Dose.FC.LYZ.S ([1]; dose 2.00 uM, FC vs plate median): 0.023 log2 fold change; Dose.FC.LYZ.S ([1]; dose 10.00 uM, FC vs plate median): 0.013 log2 fold change; Dose.FC.LYZ.NS [2, 8]: 0.116 log2 fold change; Dose.FC.LYZ.NS [2, 9]: 0.036 log2 fold change; Dose.FC.LYZ.NS [2, 10]: 0.031 log2 fold change; Dose.FC.LYZ.NS [2, 11]: 0.032 log2 fold change; Dose.FC.CTG [3, 8]: −0.142 log2 fold change; Dose.FC.CTG [3, 9]: 0.061 log2 fold change; Dose.FC.CTG [3, 10]: −0.159 log2 fold change; Dose.FC.CTG [3, 11]: −0.228 log2 fold change
O=C(/C=C/c1ccccc1)NC(NC(=S)Nc1ccc(Cl)cc1)C(Cl)(Cl)Cl (stereo not shown) [Sal003] | 1.013 | 1.595 | 0.670 | −2.142 | 0.456 | 0.370 | 0.468 | −1.981 | – | – | – | – | – | – | – | – | – | – | – | – | Dose.FC.LYZ.S ([1]; dose 0.08 uM, FC relative to plate median): 0.092 log2 fold change; Dose.FC.LYZ.S ([1]; dose 0.40 uM, FC relative to plate median): 0.067 log2 fold change; Dose.FC.LYZ.S ([1]; dose 2.00 uM, FC relative to plate median): 0.040 log2 fold change; Dose.FC.LYZ.S ([1]; dose 10.00 uM, FC relative to plate median): −0.408 log2 fold change; Dose.FC.LYZ.NS [2, 12]: 0.116 log2 fold change; Dose.FC.LYZ.NS [2, 13]: 0.183 log2 fold change; Dose.FC.LYZ.NS [2, 14]: 0.077 log2 fold change; Dose.FC.LYZ.NS [2, 15]: −0.246 log2 fold change; Dose.FC.CTG [3, 12]: 0.191 log2 fold change; Dose.FC.CTG [3, 13]: 0.155 log2 fold change; Dose.FC.CTG [3, 14]: 0.196 log2 fold change; Dose.FC.CTG [3, 15]: −0.829 log2 fold change
CC(C)C[C@@H](C(=O)N[C@H](C(=O)OC1CCCC1)c1ccccc1)[C@H](O)C(=O)NO [Tosedostat (CHR2797)] | – | – | – | – | – | – | – | – | −0.027 log2 fold change | −0.134 log2 fold change | −0.128 log2 fold change | −0.276 log2 fold change | −0.002 log2 fold change | −0.106 log2 fold change | −0.050 log2 fold change | −0.172 log2 fold change | −0.097 log2 fold change | 0.051 log2 fold change | −0.201 log2 fold change | −0.468 log2 fold change | Z.LYZ.NS (standard z score) ([2]; primary screen, dose 0.08 uM): −0.022; Z.LYZ.NS (standard z score) ([2]; primary screen, dose 0.40 uM): −0.925; Z.LYZ.NS (standard z score) ([2]; primary screen, dose 2.00 uM): −0.432; Z.LYZ.NS (standard z score) ([2]; primary screen, dose 10.00 uM): −1.499; SSMD.CTG ([3]; Table 5A primary screen; strictly standardized mean difference; four lines per treatment = four doses, dose not given): −0.311; Z.CTG (standard z score) ([3]; primary screen, dose 0.08 uM): −0.232; Z.CTG (standard z score) ([3]; primary screen, dose 0.40 uM): 0.123; Z.CTG (standard z score) ([3]; primary screen, dose 2.00 uM): −0.480; Z.CTG (standard z score) ([3]; primary screen, dose 10.00 uM): −1.117
C=C1C(=O)O[C@@H]2/C=C(\C)CC/C=C(\C)CC[C@@H]12 [Costunolide] | – | – | – | – | – | – | – | – | 0.171 log2 fold change | 0.103 log2 fold change | −0.006 log2 fold change | 0.006 log2 fold change | 0.131 log2 fold change | 0.067 log2 fold change | −0.018 log2 fold change | 0.047 log2 fold change | −0.029 log2 fold change | 0.121 log2 fold change | 0.050 log2 fold change | 0.008 log2 fold change | Z.LYZ.NS [2, 16]: 1.143; Z.LYZ.NS [2, 17]: 0.585; Z.LYZ.NS [2, 18]: −0.157; Z.LYZ.NS [2, 19]: 0.408
CC1=C(C(=O)OC2CCCCC2)C(c2ccc([N+](=O)[O-])cc2)C2=C(CC(C)(C)CC2=O)N1 (stereo not shown) [FLI-06] | – | – | – | – | – | – | – | – | 0.079 log2 fold change | 0.010 log2 fold change | −0.077 log2 fold change | −0.170 log2 fold change | 0.050 log2 fold change | −0.026 log2 fold change | −0.054 log2 fold change | −0.140 log2 fold change | 0.089 log2 fold change | 0.095 log2 fold change | 0.076 log2 fold change | −0.343 log2 fold change | Z.LYZ.NS [2, 16]: 0.439; Z.LYZ.NS [2, 17]: −0.230; Z.LYZ.NS [2, 18]: −0.466; Z.LYZ.NS [2, 19]: −1.216; Z.CTG [3, 16]: 0.213; Z.CTG [3, 17]: 0.226; Z.CTG [3, 18]: 0.182; Z.CTG [3, 19]: −0.819
